Entries after “also recorded” stand apart in the source; their conditions may differ. Where a name gives a salt, the structure may show the parent alone. Read-outs that look alike come from different tables or passages of the source.
Assays:
human 5-HT6 receptors = target: T1, human 5-HT6 receptors (Homo sapiens, UniProt P50406); assay: [3H]-LSD competition binding on membranes of HEK-293 cells expressing human 5-HT6 receptors; conditions: for inhibition: 2.5 nM [3H]-LSD
T1 construct: purchased Perkin Elmer RBHS6M; host or cells: HEK-293 cells, transient expression (membranes)
T1 sequence (P50406 whole entry): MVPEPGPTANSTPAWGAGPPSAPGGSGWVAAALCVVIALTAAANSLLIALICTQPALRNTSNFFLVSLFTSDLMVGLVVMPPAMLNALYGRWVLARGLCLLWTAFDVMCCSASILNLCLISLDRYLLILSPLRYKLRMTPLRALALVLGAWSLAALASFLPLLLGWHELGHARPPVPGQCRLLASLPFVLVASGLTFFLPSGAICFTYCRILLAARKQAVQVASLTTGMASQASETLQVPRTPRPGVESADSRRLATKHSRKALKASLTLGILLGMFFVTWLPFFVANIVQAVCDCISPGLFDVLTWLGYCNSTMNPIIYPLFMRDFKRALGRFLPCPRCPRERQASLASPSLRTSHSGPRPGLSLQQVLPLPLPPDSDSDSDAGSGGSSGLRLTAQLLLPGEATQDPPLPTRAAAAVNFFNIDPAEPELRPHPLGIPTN
Experimental: Drugs were evaluated through their possibility to compete for the binding of [^3H]-LSD on membranes of HEK-293 cells transiently expressing the human 5-HT6 receptors (ref. RBHS6M, Perkin Elmer). […] At the end of the incubation, the homogenates were then filtered through Whatman GF/C filters and washed five times with ice-cold 25 mM Tris-HCl buffer. Non-specific binding was evaluated in the presence of 100 μM serotonin. Radioactivity associated to proteins was then quantified and expressed as the percentage of inhibition of the drugs under study.
(§1) For some of these compounds, affinity constants were calculated from five-point inhibition curves using the GraphPad Prism 6 software and expressed as Ki ± SD.

Human 5-HT4R = target: T2, Human 5-HT4R (Homo sapiens, UniProt Q13639); assay: [3H]-GR113808 competition binding on 5-HT4(b) membrane preparations; conditions: for inhibition: 0.2 nM [3H]-GR113808
T2 construct: purchased Eurofins HTS110M
T2 sequence (Q13639 whole entry): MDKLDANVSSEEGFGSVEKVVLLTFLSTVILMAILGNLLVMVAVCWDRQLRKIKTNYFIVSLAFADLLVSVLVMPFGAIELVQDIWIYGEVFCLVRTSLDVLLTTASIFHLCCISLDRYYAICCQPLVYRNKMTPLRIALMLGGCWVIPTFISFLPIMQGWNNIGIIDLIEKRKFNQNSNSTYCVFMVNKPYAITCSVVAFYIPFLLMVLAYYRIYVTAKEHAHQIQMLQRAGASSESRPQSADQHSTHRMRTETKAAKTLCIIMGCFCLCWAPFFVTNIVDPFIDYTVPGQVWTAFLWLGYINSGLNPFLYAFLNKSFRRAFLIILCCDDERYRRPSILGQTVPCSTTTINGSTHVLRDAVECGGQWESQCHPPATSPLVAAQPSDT
Experimental: At the end of the incubation, homogenates were filtered through Whatman GF/C filters (Alpha Biotech) presoaked with 0.5% polyethylenimine using a Brandel cell harvester. Filters were subsequently washed three times with 1 mL of ice-cold 25 mM Tris buffer (pH 7.4, 4°C). Non-specific binding was evaluated in parallel in the presence of 30 μM serotonin.
as §1

[1] = target: T3, AChE from human erythrocytes (Homo sapiens, UniProt P22303); assay: biochemical; conditions: for inhibition at 1 µM: read-out: (h)AChE % inhibition at 10^−6M; for IC50: n = 2, read-out: (h)AChE IC50
T3 construct: AChE from human erythrocytes; purchased Sigma Aldrich; host or cells: human erythrocytes (natural source)
T3 sequence (P22303 other isoform, or with tags, fused parts or gaps): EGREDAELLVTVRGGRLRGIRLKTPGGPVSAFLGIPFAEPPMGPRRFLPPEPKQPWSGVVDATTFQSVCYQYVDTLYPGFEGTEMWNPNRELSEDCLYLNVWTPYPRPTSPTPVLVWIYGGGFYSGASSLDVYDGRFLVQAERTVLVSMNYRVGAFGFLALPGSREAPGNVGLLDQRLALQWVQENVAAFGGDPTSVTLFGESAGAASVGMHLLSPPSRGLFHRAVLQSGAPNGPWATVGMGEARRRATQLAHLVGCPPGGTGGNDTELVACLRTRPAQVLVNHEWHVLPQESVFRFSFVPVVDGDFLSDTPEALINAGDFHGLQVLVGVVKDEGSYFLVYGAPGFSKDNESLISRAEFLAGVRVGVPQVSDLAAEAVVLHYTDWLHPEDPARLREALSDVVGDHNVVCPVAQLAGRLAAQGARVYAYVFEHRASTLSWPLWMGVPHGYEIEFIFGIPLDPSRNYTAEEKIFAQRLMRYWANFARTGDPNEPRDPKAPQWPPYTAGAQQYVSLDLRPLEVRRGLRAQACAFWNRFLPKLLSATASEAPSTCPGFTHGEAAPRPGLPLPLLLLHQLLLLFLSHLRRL
Experimental: Acetylthiocholine iodide and 5,5-dithiobis-(2-nitrobenzoic) acid (DTNB) were purchased from Sigma Aldrich. AChE from human erythrocytes (buffered aqueous solution, ≥500 units/mg protein (BCA), Sigma Aldrich) was diluted in 20 mM HEPES buffer pH 8, 0.1% Triton X-100 such as to have enzyme solution with 0.25 unit/mL enzyme activity. In the procedure, 100 μL of 0.3 mM DTNB dissolved in phosphate buffer pH 7.4 was added into the 96-well plate followed by 50 μL of test compound solution and 50 μL of enzyme (0.05 U final). After 5 min of preincubation at 25°C, the reaction was then initiated by the injection of 50 μL of 10 mM acetylthiocholine iodide solution. […] Assays were performed with a blank containing all components except acetylthiocholine, in order to account for non-enzymatic reaction. The reaction slopes were compared and the percent inhibition due to the presence of test compounds was calculated by the following expression: 100 − (vi/v0 × 100) where vi is the rate calculated in the presence of inhibitor and v0 is the enzyme activity.

mice [2] = assay: CNS-activity and acute toxicity test; conditions: mice, intraperitoneal
Experimental: (§2) Adult male NMRI mice (3 months old, weighing 35–40 g) from Janvier labs (Le Genest-Saint-Isle, France) were used to perform experiments. Mice were housed by ten in standard polycarbonate cages in standard controlled conditions (22 ± 2°C, 55 ± 10% humidity) with a reversed 12 h light/dark cycle (light on at 7 pm). Food and water were available ad libitum in the home cage.
(§3) The approximate DL50 of the compounds were also calculated through the quantification of mortality after 24 h. Amphetamine (2 mg/kg), chlorpromazine (10 mg/kg) were used as a stimulant and depressive references, respectively.
(§4) Amphetamine, (+)-α-Methylphenethylamine hemisulfate, chlorpromazine hydrochloride, imipramine hydrochloride and scopolamine hydrobromide were purchased from Sigma (France). All those pharmacological compounds were dissolved in NaCl 0.9% as the vehicle were administered IP 30 min before tests, except scopolamine which was subcutaneously administered 20 min before spontaneous alternation test.

(h)5-HT6R [3] = target: T4, (h)5-HT6R (Homo sapiens, UniProt P50406); assay: Reversion of the basal 5-HT6R-induced cAMP production (constitutive activity) in COS-7 cells; type: cell-based; conditions: for cAMP production in the absence of agonist (inverse agonist activity): 10^−4M, absence of 5-HT; for (h)5-HT6R Profile: cAMP
T4 construct: HA; expressed in transfected cells; host or cells: COS-7 cells, transient electroporation
T4 sequence (P50406 whole entry): as the sequence (P50406 whole entry) above
Experimental: (§5) COS-7 cells were grown in Dulbecco’s modified Eagle medium (DMEM) supplemented with 10% dialyzed fetal calf serum (dFCS) and antibiotics. Cells were transiently transfected by electroporation with plasmids encoding HA-tagged 5-HT4R (100 ng/10^6 cells) or HA-tagged 5-HT6R (70 ng/10^6 cells or 300 ng/10^6 cells), then seeded in 96-well plates (16,000 cells/well).
Reversion of the basal 5-HT6R-induced cAMP production: the 5-HT6R expression was augmented by transfection of higher quantities of cDNA (300 ng/10^6 cells) to increase the basal cAMP production linked to the constitutive activity of the receptor. […] This experiment is performed in the absence of 5-HT. After 10 min at 37°C, cells were then lysed by addition of 100 μL of Triton-X100 (0.1%).
(§6) Quantification of cAMP production was performed by HTRF® by using the cAMP Dynamic kit (Cisbio Bioassays) according to the manufacturer’s instructions.

(h)5-HT6R [4] = target: T4, (h)5-HT6R; assay: Blockade of the 5-HT6R-induced cAMP production in transfected COS-7 cells; type: cell-based; conditions: for (h)5-HT6R % control antagonist response: SB271046 as control 5-HT6R antagonist, n = 2
Experimental: as §5
Blockade of the 5-HT6R-induced cAMP production: 24 h after transfection, cells were exposed to the indicated concentrations of 5-HT6R ligands at 37°C in 50 μL of HBS. […] After 10 min at 37°C, cells were then lysed by addition of 100 μL of Triton-X100 (0.1%).
as §6

mice [5] = assay: Spatial working memory: scopolamine-induced deficit of spontaneous alternation in the Y maze; type: in vivo, NMRI mice; conditions: IP 30 min before test, 0.3, 1, 3 mg/kg, scopolamine 0.5 mg/kg SC, effect at doses starting from 0.3 mg/kg
Experimental: as §2
An arm entry was scored when all four feet crossed into the arm. An alternation was defined as entries into all three arms on a consecutive occasion.
as §4

[6] = CNS-activity and acute toxicity test; conditions: male, NMRI, mouse, in vivo, ip
Experimental: as §2, §3, §4

mice [7] = assay: Locomotor activity (actimeter); type: in vivo; conditions: IP 30 min before test, 1, 3 and 10 mg/kg, 30 min recording
Experimental: as §2, §4

(h)5-HT4(a)R = target: T5, (h)5-HT4(a)R (Homo sapiens, UniProt Q13639); assay: 5-HT4R-induced cAMP production in transfected COS-7 cells; type: cell-based
T5 construct: HA; expressed in transfected cells; host or cells: COS-7 cells, transient electroporation
T5 sequence (Q13639 1-387 isoform Q13639-2): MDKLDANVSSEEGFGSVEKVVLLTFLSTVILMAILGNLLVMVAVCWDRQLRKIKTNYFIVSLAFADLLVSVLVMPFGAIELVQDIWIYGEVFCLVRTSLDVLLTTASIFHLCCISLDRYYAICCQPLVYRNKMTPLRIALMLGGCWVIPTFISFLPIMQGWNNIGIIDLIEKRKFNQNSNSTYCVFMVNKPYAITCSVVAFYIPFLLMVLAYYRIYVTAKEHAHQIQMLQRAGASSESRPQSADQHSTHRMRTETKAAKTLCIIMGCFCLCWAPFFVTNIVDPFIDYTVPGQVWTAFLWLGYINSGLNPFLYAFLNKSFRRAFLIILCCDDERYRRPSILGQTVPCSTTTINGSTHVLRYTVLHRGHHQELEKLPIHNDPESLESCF
Experimental: as §5
After 10 min, cells were then lysed by addition of the same volume of Triton-X100 (0.1%).
as §6

[8] = read-out: (h)5-HT6R % inhibition at 10^−6M, 10^−6M
[9] = read-out: (h)5-HT6R % inhibition at 10^−8M, 10^−8M
[10] = read-out: (h)5-HT4R % inhibition at 10^−6M, 10^−6M
[11] = read-out: (h)5-HT4R % inhibition at 10^−8M, 10^−8M

COc1cc(N)c(Cl)cc1C(=O)CCC1CCN(Cc2cc([N+](=O)[O-])ccc2F)CC1 [5s, 1-(4-Amino-5-chloro-2-methoxyphenyl)-3-(1-(2-fluoro-5-nitrobenzyl)piperidin-4-yl)propan-1-one]
inhibition (human 5-HT6 receptors; [8]): 18% | inhibition (human 5-HT6 receptors; [9]): 5% | inhibition (Human 5-HT4R; [10]): 62% | inhibition (Human 5-HT4R; [11]): 4% | inhibition at 1 µM [1]: 63%

COc1cc(N)c(Cl)cc1C(=O)CCC1CCN(Cc2cc(N)ccc2F)CC1 [5t, 1-(4-Amino-5-chloro-2-methoxyphenyl)-3-(1-(5-amino-2-fluorobenzyl)piperidin-4-yl)propan-1-one]
inhibition (human 5-HT6 receptors; [8]): 65% | inhibition (human 5-HT6 receptors; [9]): 3% | inhibition (Human 5-HT4R; [10]): 98% | inhibition (Human 5-HT4R; [11]): 18% | IC50 [1]: 153 ± 19.9 nM | inhibition at 1 µM [1]: 79%

C[C@H](N)Cc1ccccc1 [Amphetamine, (+)-α-Methylphenethylamine hemisulfate]
Symptoms (subtoxic doses) (mice [2]; 2 mg/kg, stimulant reference): Hyperactivity; also recorded: Exopthalmy; also recorded: Irritability

CN(C)CCCN1c2ccccc2Sc2ccc(Cl)cc21 [Chlorpromazine, chlorpromazine hydrochloride]
Symptoms (subtoxic doses) (mice [2]; 10 mg/kg, depressive reference): Hypoactivity; also recorded: Ataxia; also recorded: Sleep

Fc1ccc2c(CCNCc3cccc(OCC(F)(F)C(F)F)c3)c[nH]c2c1 [compound 2, idalopirdine, reference compound]
inhibition (human 5-HT6 receptors; [9]): 88% | cAMP production in the absence of agonist (inverse agonist activity) ((h)5-HT6R [3]): decreased cAMP production below the basal | (h)5-HT6R Profile ((h)5-HT6R [3]): Inverse agonist | (h)5-HT6R % control antagonist response ((h)5-HT6R [4]): 101.2 ± 3.2 n = 2%

COc1cc(N)c(Cl)cc1C(=O)CCC1CCN(Cc2cccc(C)c2)CC1.O=C(O)/C=C/C(=O)O [compound 10, 1-(4-Amino-5-chloro-2-methoxyphenyl)-3-(1-(3-methylbenzyl)piperidin-4-yl)propan-1-one fumaric acid salt]
Effect on scopolamine-induced spontaneous alternation deficit (mice [5]): anti-amnesic effect was observed | Ki (human 5-HT6 receptors; (h)5-HT6R Ki, n = 3, Ki ± SD): 219 ± 42 nM | Ki (Human 5-HT4R; (h)5-HT4R Ki, n = 3, Ki ± SD): 210 ± 43 nM | cAMP production in the absence of agonist (inverse agonist activity) ((h)5-HT6R [3]): decreased cAMP production below the basal | (h)5-HT6R Profile ((h)5-HT6R [3]): Inverse agonist | Symptoms (subtoxic doses) (mice [2]; 1–10–100 mg/kg): did not show any deleterious signs; also recorded: No symptoms | LD50 at 24 h [6]: > 100 mg/kg | IC50 ((h)5-HT6R [4]): 10000 nM | (h)5-HT6R % control antagonist response ((h)5-HT6R [4]): 93.4 ± 1.8 n = 2% | Effect on spontaneous locomotor activity (mice [7]): did neither modify spontaneous locomotor activity | EC50 ((h)5-HT4(a)R): 20 nM | (h)5-HT4(a)R % control agonist response ((h)5-HT4(a)R; 5-HT as control 5-HT4R agonist, n = 2): 59.8 ± 2.5 n = 2% | (h)5-HT4(a)R Profile ((h)5-HT4(a)R; cAMP, COS-7 cells): Partial agonist | IC50 [1]: 33.7 ± 1.7 nM
